Patent US7138361B2, “Herbicidal heterocycles” (E. I. du Pont de Nemours and Company, priority 2000, dated 2006)

How the values were obtained:
Type in all cases: in vivo
Sunflower = test: Test C preemergence; settings: Rate 500 g/ha, visual evaluation after 12 to 14 days
[1] = tested on: giant foxtail (Setaria faberii); test: Test B preemergence
Method in brief: (§1)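 Seeds were planted and sprayed preemergence with test chemical in a non-phytotoxic solvent mixture containing surfactant; postemergence plants (2 to 18 cm, 1- to 4-leaf stage) received the same formulation. Greenhouse hold 13 to 15 days, then visual rating versus untreated controls on a 0–100 scale (0 no effect, 100 complete control).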

[2] = tested on: velvetleaf (Abutilon theophrasti); test: Test B preemergence
Method in brief: as §1

[3] = tested on: barnyardgrass (Echinochloa crus-galli); test: Test B preemergence
Method in brief: as §1

[4] = tested on: cocklebur (Xanthium strumarium); test: Test B preemergence
Method in brief: as §1

[5] = tested on: morning glory (Ipomoea hederacea); test: Test B preemergence
Method in brief: as §1

[6] = tested on: lambsquarters (Chenopodium album); test: Test B preemergence
Method in brief: as §1

corn (Zea mays) [7] = test: Test B preemergence
Method in brief: as §1

rice (Oryza saliva) = test: Test B preemergence
Method in brief: as §1

[8] = tested on: crabgrass (Digitaria sanguinalis); test: Test B preemergence
Method in brief: as §1

[9] = tested on: pigweed (Amaranthus retroflexus); test: Test B preemergence
Method in brief: as §1

[10] = tested on: Surinam grass (Brachiaria decumbens); test: Test B preemergence
Method in brief: as §1

[11] = tested on: giant foxtail (Setaria faberii); test: Test B postemergence; settings: 13 to 15 days
Method in brief: as §1

[12] = tested on: velvetleaf (Abutilon theophrasti); test: Test B postemergence; settings: 13 to 15 days
Method in brief: as §1

[13] = tested on: barnyardgrass (Echinochloa crus-galli); test: Test B postemergence; settings: 13 to 15 days
Method in brief: as §1

[14] = tested on: cocklebur (Xanthium strumarium); test: Test B postemergence; settings: 13 to 15 days
Method in brief: as §1

[15] = tested on: morning glory (Ipomoea hederacea); test: Test B postemergence; settings: 13 to 15 days
Method in brief: as §1

[16] = tested on: lambsquarters (Chenopodium album); test: Test B postemergence; settings: 13 to 15 days
Method in brief: as §1

wild oat (Avena fatua) = test: Test B postemergence; settings: 13 to 15 days
Method in brief: as §1

corn (Zea mays) [17] = test: Test B postemergence; settings: 13 to 15 days
Method in brief: as §1

[18] = tested on: blackgrass (Alopecurus myosuroides); test: Test B postemergence; settings: 13 to 15 days
Method in brief: as §1

[19] = tested on: wheat (Triticum aestivum); test: Test B postemergence; settings: 13 to 15 days
Method in brief: as §1

[20] = tested on: crabgrass (Digitaria sanguinalis); test: Test B postemergence; settings: 13 to 15 days
Method in brief: as §1

[21] = tested on: pigweed (Amaranthus retroflexus); test: Test B postemergence; settings: 13 to 15 days
Method in brief: as §1

[22] = tested on: Surinam grass (Brachiaria decumbens); test: Test B postemergence; settings: 13 to 15 days
Method in brief: as §1

Nightshade = test: Test C preemergence; settings: Rate 500 g/ha, visual evaluation after 12 to 14 days
[23] = tested on: smallflower flatsedge (Cyperus difformis); test: Test C flooded paddy test; settings: for Flatsedge plant response rating: Flooded Paddy, scale 0 to 100, 0 no effect, 100 complete control; for Plant response rating, Flatsedge: flooded paddy test, scale 0 to 100 (0 no effect, 100 complete control)
Method in brief: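 Each species was cultivated to 2 leaves in flooded paddy pots, then treated. After a greenhouse period of 12–14 days, the plants were scored visually relative to controls from 0 (no effect) to 100 (complete control).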

[24] = Preemergence, Rate 500 g/ha, scale 0 to 100, 0 no effect, 100 complete control
[25] = preemergence, Rate 125 g/ha, scale of 0 to 100 where 0 is no effect and 100 is complete control, 13 to 15 days
[26] = Rate 125 g/ha, scale 0 (no effect) to 100 (complete control)
[27] = Rate 500 g/ha, scale 0 to 100, 0 is no effect, 100 is complete control

## Cc1ccc(N2CCC(n3ccc(C(C)(C)C)n3)C2=O)cc1OC(F)F (stereo not drawn) [Compound 79]
Sunflower
  Plant response rating (0 to 100), Sunflower: 60
[1]; [24]
  Plant response rating, Foxtail, Giant: 60
[1]; [25]
  Plant response rating, Foxtail, Giant: 0
[2]; [24]
  Plant response rating, Velvetleaf: 90
[2]; [25]
  Plant response rating, Velvetleaf: 0
[3]; [24]
  Plant response rating, Barnyardgrass: 100
[3]; [25]
  Plant response rating, Barnyardgrass: 70
[4]; [24]
  Plant response rating, Cocklebur: 0
[4]; [25]
  Plant response rating, Cocklebur: 0
[5]; [24]
  Plant response rating, Morningglory: 100
[5]; [25]
  Plant response rating, Morningglory: 0
[6]; [24]
  Plant response rating, Lambsquarters: 100
[6]; [25]
  Plant response rating, Lambsquarters: 100
Corn (Zea mays) [7]; [24]
  Plant response rating, Corn: 0
Corn (Zea mays) [7]; [25]
  Plant response rating, Corn: 0
Rice (Oryza saliva); [24]
  Plant response rating, Rice: 90
Rice (Oryza saliva); [25]
  Plant response rating, Rice: 50
[8]; [24]
  Plant response rating, Crabgrass: 100
[8]; [25]
  Plant response rating, Crabgrass: 100
[9]; [24]
  Plant response rating, Pigweed: 100
[9]; [25]
  Plant response rating, Pigweed: 100
[10]; [24]
  Plant response rating, Surinam grass: 90
[10]; [25]
  Plant response rating, Surinam grass: 70
[11]; [26]
  Plant response rating, Foxtail, Giant: 0
[11]; [27]
  Plant response rating, Foxtail, Giant: 0
[12]; [26]
  Plant response rating, Velvetleaf: 0
[12]; [27]
  Plant response rating, Velvetleaf: 0
[13]; [26]
  Plant response rating, Barnyardgrass: 0
[13]; [27]
  Plant response rating, Barnyardgrass: 0
[14]; [26]
  Plant response rating, Cocklebur: 30
[14]; [27]
  Plant response rating, Cocklebur: 30
[15]; [26]
  Plant response rating, Morningglory: 30
[15]; [27]
  Plant response rating, Morningglory: 40
[16]; [26]
  Plant response rating, Lambsquarters: 0
[16]; [27]
  Plant response rating, Lambsquarters: 10
Wild oat (Avena fatua); [26]
  Plant response rating, Wild Oat: 0
Wild oat (Avena fatua); [27]
  Plant response rating, Wild Oat: 0
Corn (Zea mays) [17]; [26]
  Plant response rating, Corn: 0
Corn (Zea mays) [17]; [27]
  Plant response rating, Corn: 0
[18]; [26]
  Plant response rating, Blackgrass: 0
[18]; [27]
  Plant response rating, Blackgrass: 0
[19]; [26]
  Plant response rating, Wheat: 0
[19]; [27]
  Plant response rating, Wheat: 0
[20]; [26]
  Plant response rating, Crabgrass: 0
[20]; [27]
  Plant response rating, Crabgrass: 0
[21]; [26]
  Plant response rating, Pigweed: 70
[21]; [27]
  Plant response rating, Pigweed: 70
[22]; [26]
  Plant response rating, Surinam grass: 0
[22]; [27]
  Plant response rating, Surinam grass: 0
Nightshade
  Plant response rating (0 to 100), Nightshade: 90
[23]; Rate 250 g/ha
  Flatsedge plant response rating: 90
[23]; Rate 500 g/ha
  Flatsedge plant response rating: 90
[23]; Rate 62 g/ha
  Plant response rating, Flatsedge: 90
[23]; Rate 125 g/ha
  Plant response rating, Flatsedge: 90

## CCC(C)c1ccn(C2CCN(c3ccc(C)c(OC)c3)C2=O)n1 (stereo not drawn) [Compound 80]
Sunflower
  Plant response rating (0 to 100), Sunflower: 60
[1]; [24]
  Plant response rating, Foxtail, Giant: 100
[1]; [25]
  Plant response rating, Foxtail, Giant: 100
[2]; [24]
  Plant response rating, Velvetleaf: 70
[2]; [25]
  Plant response rating, Velvetleaf: 0
[3]; [24]
  Plant response rating, Barnyardgrass: 100
[3]; [25]
  Plant response rating, Barnyardgrass: 0
[4]; [24]
  Plant response rating, Cocklebur: 0
[4]; [25]
  Plant response rating, Cocklebur: 0
[5]; [24]
  Plant response rating, Morningglory: 100
[5]; [25]
  Plant response rating, Morningglory: 60
[6]; [24]
  Plant response rating, Lambsquarters: 100
[6]; [25]
  Plant response rating, Lambsquarters: 100
Corn (Zea mays) [7]; [24]
  Plant response rating, Corn: 20
Corn (Zea mays) [7]; [25]
  Plant response rating, Corn: 0
Rice (Oryza saliva); [24]
  Plant response rating, Rice: 90
Rice (Oryza saliva); [25]
  Plant response rating, Rice: 60
[8]; [24]
  Plant response rating, Crabgrass: 100
[8]; [25]
  Plant response rating, Crabgrass: 100
[9]; [24]
  Plant response rating, Pigweed: 100
[9]; [25]
  Plant response rating, Pigweed: 100
[10]; [24]
  Plant response rating, Surinam grass: 90
[10]; [25]
  Plant response rating, Surinam grass: 80
[11]; [26]
  Plant response rating, Foxtail, Giant: 0
[11]; [27]
  Plant response rating, Foxtail, Giant: 0
[12]; [26]
  Plant response rating, Velvetleaf: 40
[12]; [27]
  Plant response rating, Velvetleaf: 70
[13]; [26]
  Plant response rating, Barnyardgrass: 0
[13]; [27]
  Plant response rating, Barnyardgrass: 10
[14]; [26]
  Plant response rating, Cocklebur: 70
[14]; [27]
  Plant response rating, Cocklebur: 80
[15]; [26]
  Plant response rating, Morningglory: 40
[15]; [27]
  Plant response rating, Morningglory: 90
[16]; [26]
  Plant response rating, Lambsquarters: 10
[16]; [27]
  Plant response rating, Lambsquarters: 90
Wild oat (Avena fatua); [26]
  Plant response rating, Wild Oat: 0
Wild oat (Avena fatua); [27]
  Plant response rating, Wild Oat: 0
Corn (Zea mays) [17]; [26]
  Plant response rating, Corn: 0
Corn (Zea mays) [17]; [27]
  Plant response rating, Corn: 0
[18]; [26]
  Plant response rating, Blackgrass: 0
[18]; [27]
  Plant response rating, Blackgrass: 0
[19]; [26]
  Plant response rating, Wheat: 0
[19]; [27]
  Plant response rating, Wheat: 0
[20]; [26]
  Plant response rating, Crabgrass: 0
[20]; [27]
  Plant response rating, Crabgrass: 40
[21]; [26]
  Plant response rating, Pigweed: 70
[21]; [27]
  Plant response rating, Pigweed: 80
[22]; [26]
  Plant response rating, Surinam grass: 0
[22]; [27]
  Plant response rating, Surinam grass: 0
Nightshade
  Plant response rating (0 to 100), Nightshade: 100
[23]; Rate 250 g/ha
  Flatsedge plant response rating: 90
[23]; Rate 500 g/ha
  Flatsedge plant response rating: 100
[23]; Rate 62 g/ha
  Plant response rating, Flatsedge: 90
[23]; Rate 125 g/ha
  Plant response rating, Flatsedge: 90
